In experiment [1] the target is T1, human DGAT1 (hDGAT1) (Homo sapiens, UniProt O75907).
T1 construct: made in house; host or cells: Sf9 insect cells (Bac-to-Bac baculovirus, pFastBac1); microsomal fraction
T1 sequence (O75907 1-488): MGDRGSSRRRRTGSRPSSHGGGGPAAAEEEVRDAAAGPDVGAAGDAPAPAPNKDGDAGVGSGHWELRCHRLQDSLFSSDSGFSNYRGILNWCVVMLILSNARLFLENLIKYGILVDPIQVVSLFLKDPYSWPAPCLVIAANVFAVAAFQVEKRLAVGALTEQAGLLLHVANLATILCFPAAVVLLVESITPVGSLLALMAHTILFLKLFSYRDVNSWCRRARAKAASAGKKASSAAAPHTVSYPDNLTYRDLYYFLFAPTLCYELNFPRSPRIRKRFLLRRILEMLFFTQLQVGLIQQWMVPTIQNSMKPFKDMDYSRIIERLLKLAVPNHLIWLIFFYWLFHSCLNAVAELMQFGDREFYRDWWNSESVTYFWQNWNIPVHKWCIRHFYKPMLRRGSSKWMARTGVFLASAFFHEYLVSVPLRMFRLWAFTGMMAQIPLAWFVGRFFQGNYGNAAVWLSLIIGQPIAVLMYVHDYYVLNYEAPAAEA
As to the kind of experiment: DGAT1 inhibitory activity test (hDGAT1-expressing Sf9 cell microsome, [14C]oleoyl-CoA, FlashPlate). Type of experiment: biochemical. Conditions: test substance 1, 10, 100, 1000 nM, linear regression. Here is the method: (1) Production of Bacmid-hDGAT1
A base sequence encoding a human DGAT1 (hDGAT1) (1467 bases of CDS in Genbank Accession No. NM_012079) was cloned and ligated to pFastBac™1 (Invitrogen) to produce a pFastBac1-hDGAT1. From this plasmid, an engineered baculovirus liquid (Bacmid-hDGAT1) was prepared using a Bac-to-Bac (registered trademark) Baculovirus Expression System (Invitrogen).
(2) Preparation of Sf9 Cell-Derived DGAT1-Expressing Microsomal Fraction
Sf9 cells were seeded into a 225-cm^2 Flask Angled Neck (CORNING) to a confluency of 80%, and statically cultured in an incubator at 27° C. using an EX-CELL™ 420 INSECT SERUM-FREE MEDIUM (SAFC Biosciences, Inc.). After 24 hours, the culture medium was taken out, and a liquid obtained by diluting 1.67 mL of an engineered baculovirus medium (Bacmid-hDGAT1) with 3.33 mL of an EX-CELL™ 420 INSECT SERUM-FREE MEDIUM was added thereto, and the resultant was cultured under shaking in an incubator at 27° C. for 1 hour. Thereafter, 25 mL of an EX-CELL™ 420 INSECT SERUM-FREE MEDIUM was added thereto, followed by culturing in an incubator at 27° C. for 72 hours. The infected cells were harvested, diluted with 1.5 mL of a buffer A (40 mM phosphate buffer (pH 7.2) including 100 mM sucrose and 50 mM KCl) containing a Complete Protease Inhibitor Cocktail (Roche Diagnostics K. K.), and then subjected to sonication using a SONIFER 250 (BRANSON Ultrasonic Corp.). This suspension was centrifuged at 10000×g for 5 minutes and the supernatant was recovered. This supernatant was centrifuged at 100000×g for 60 minutes and the resulting precipitate was dissolved in 600 μL of a buffer A and then subjected to sonication again, to prepare a suspension. This suspension was taken as a hDGAT1-expressing Sf9 cell microsome.
(3) DGAT1 Activity Measurement
For the DGAT1 activity, a test substance in DMSO (final DMSO concentration 2%) in which 100 mM Tris-HCl (pH 8.0), 2 mM MgCl2, 0.01% BSA, a hDGAT1-expressing Sf9 cell microsome, 200 μM dioleoyl glycerol or dipalmitoyl glycerol, 8.9 μM [^14C] oleoyl-CoA, and 1.68% acetone were added to a phospholipid FlashPlate (PerkinElmer Life Science). The reaction was carried out at 30° C. for 60 minutes, and then twice the amount (100 μL), relative to the reaction liquid, of a mixture of isopropyl alcohol:0.1 M carbonate buffer (pH 9.0) at a ratio of 1:1 was added thereto to stop the reaction. The next day, the count was measured with a TopCount microplate scintillation counter (PerkinElmer Life Science).
The count without addition of the test substance was taken as a control (TG with addition of DMSO). The count without addition of the test substance and the microsome was taken as a Blank TG. The DGAT1 inhibitory rate of the test substance was calculated by the following calculation equation:
Inhibitory Rate (%)=(TG with addition of test substance−Blank TG)÷(TG with addition of DMSO−Blank TG)×100
The DGAT1 inhibitory rates were calculated when the concentrations of the test substance in the reaction liquid were 1, 10, 100, and 1000 nM. Linear regression was performed using the inhibitory rates obtained, and a test substance concentration (IC50) required to inhibit the DGAT1 activity by 50% was calculated by an SAS 8.2 software package (SAS Institute Japan, Ltd., Tokyo, Japan).

Experiment [2] relates to male C57BL/6J mice. The experiment can be described thus: Inhibitory action on increase in triglyceride (TG) by fat administration. Type of experiment: in vivo. Conditions: administration amount 0.3 mg/kg; fat (intralipid 20%, 10 mL/kg) orally 20 hours after dosing; plasma TG 2 hours after fat; control 0.5% methyl cellulose group. Here is the method:
8- to 15-week male C57BL/6J mice were fasted for four hours, and the test substances were administered to the mice. The test substance was administered after suspending it in a 0.5% methyl cellulose solution. After 20 hours, fat (intralipid 20%, Terumo (Fresenius), 10 mL/kg) was orally administered thereto. Immediately before and after 2 hours from administration of the fat, blood was collected from the tail vein to obtain plasma. For measurement of the TG in plasma, a TG increase in the plasma by fat administration was calculated using a Triglyceride E Test Wako (Wako Pure Chemical Industries Ltd.). Using the TG increase in the plasma in a group to which 0.5% methyl cellulose had been administered as a control, the TG increase inhibitory rate when the test substance had been administered was determined.

In experiment [3] the test system is DIO mice. As to the kind of experiment: Anti-obesity action in DIO mice. Type of experiment: in vivo. Conditions: oral, once per day, administration period 2 weeks, 1 mg/kg; high-fat diet C57BL/6J mice; solvent group weight increase = 100%. The procedure: High-fat diet formula (Research Diet D12492, 60 kcal % fat) were given to 9-week male C57BL/6J mice. For acclimatization of the mice, the solvent used in the test from the 4th week was administered thereto. From the 5th week, the test substance was orally administered once or twice daily. The test substance was administered after suspending it in a 0.5% methyl cellulose solution. Administration was performed repeatedly for 2 or 4 weeks, and variation in the weights due to the test substance administration was observed. By taking the increase in the weight in the group to which the solvent had been administered within a test period as 100%, the weight increase inhibitory rate of the test substance was calculated.

For `O=C(O)CC1CCC(c2ccc(C(=O)NCCNC(=O)c3ccc(Cl)cc3)cc2)CC1` (stereo not drawn) [Example 6, {4-[4-({2-[(4-chlorobenzoyl)amino]ethyl}carbamoyl)phenyl]cyclohexyl}acetic acid], the IC50 – broadly, the concentration needed to halve the response being measured – in experiment [1] was found to be 20 nM.
Molecule `CCOc1ccc(C(=O)NCCNC(=O)c2ccc(O[C@H]3CC[C@@H](C(=O)O)CC3)cc2)cc1` [Example 18] returned an IC50 in experiment [1] of 21 nM.
`CCCCCC12CCC(C(=O)NCCNC(=O)c3ccc(O[C@H]4CC[C@@H](C(=O)O)CC4)cc3)(CC1)CC2` [Example 20]: the IC50 in experiment [1] was found to be 2.1 nM.
In the case of `O=C(NCCNC(=O)c1ccc(O[C@H]2CC[C@@H](C(=O)O)CC2)cc1)Nc1ccccc1Cl` [Example 56], half-maximal inhibition in experiment [1] (IC50) required 14 nM. This IC50 is about 6.7-fold higher than that of the molecule before.
Molecule `O=C(NCCNC(=O)c1ccc(O[C@H]2CC[C@@H](C(=O)O)CC2)cc1)c1ccc(Oc2ccc(F)cc2)cc1` [Example 63] came in with an IC50 in experiment [1] of 0.4 nM.
In the case of `O=C(NCCNC(=O)c1ccc(C2CC2)cc1)c1ccc(O[C@H]2CC[C@@H](C(=O)O)CC2)cc1` [Example 79], the “TG increase inhibitory rate” value in experiment [2] worked out at 79%. Besides, in experiment [1], 2.3 nM corresponded to half-maximal inhibition (IC50).
`O=C(NCCNC(=O)c1ccc(F)c(C(F)(F)F)c1)c1ccc(O[C@H]2CC[C@@H](C(=O)O)CC2)cc1` [Example 82] returned an IC50 in experiment [1] of 9.9 nM.
As to `O=C(NCCNC(=O)c1ccc2ccccc2c1)c1ccc(O[C@H]2CC[C@@H](C(=O)O)CC2)cc1` [Example 83], in experiment [1], the IC50 was determined as 5.2 nM.
In experiment [1], `Cc1cc(C(=O)NCCNC(=O)c2ccc(O[C@H]3CC[C@@H](C(=O)O)CC3)cc2)ccc1Cl` [Example 106] yielded an IC50 of 5.3 nM.
`O=C(NCCNC(=O)c1ccc(C2CC2)c(Cl)c1)c1ccc(O[C@H]2CC[C@@H](C(=O)O)CC2)c(F)c1` [Example 135]: the IC50 in experiment [1] turned out to be 5.8 nM.
Regarding `O=C(NCCNC(=O)c1cc2cc(OC(F)(F)F)ccc2[nH]1)c1ccc(O[C@H]2CC[C@@H](C(=O)O)CC2)cc1` [Example 148], the IC50 in experiment [1] is 4.2 nM.
Consider `O=C(NCCNC(=O)c1ccc(O[C@H]2CC[C@@H](C(=O)O)CC2)cc1F)c1ccc2ccccc2c1` [Example 169], for which the “TG increase inhibitory rate” value in experiment [2] is reported as 75%. In addition, in experiment [1], the IC50 amounted to 2.7 nM.
Regarding `Cc1cc(O[C@H]2CC[C@@H](C(=O)O)CC2)ccc1C(=O)NCCNC(=O)c1ccc(C(F)(F)F)cc1` [Example 187], the IC50 in experiment [1] came out at 8.1 nM. This counts as single-digit nanomolar.
Regarding `CCOc1ccc(C(=O)NCCNC(=O)c2ccc(O[C@H]3CC[C@@H](C(=O)O)CC3)nc2)cc1Cl` [Example 245], the IC50 in experiment [1] is 14 nM.
As to `O=C(NCCNC(=O)c1c(F)cc(O[C@H]2CC[C@@H](C(=O)O)CC2)cc1F)c1ccc2ccccc2c1` [Example 299], in experiment [1], half-maximal inhibition (IC50) required 6.7 nM.
For the molecule `O=C(NCCNC(=O)c1ccc(O[C@H]2CC[C@@H](C(=O)O)CC2)c(F)c1F)c1ccc2ccccc2c1` [Example 300], in experiment [1], the midpoint of inhibition, the IC50, lay at 5.6 nM.
With `O=C(NCCNC(=O)c1cc(F)c(O[C@H]2CC[C@@H](C(=O)O)CC2)cc1F)c1ccc2ccccc2c1` [Example 454], in experiment [2], the “TG increase inhibitory rate” value stood at 106%. In addition, the “weight increase inhibitory rate” value in experiment [3] is listed as 93%. The same molecule yielded an IC50 in experiment [1] of 1 nM.
Turning to `O=C(NCCNC(=O)c1sc2ccccc2c1Cl)c1ccc(O[C@H]2CC[C@@H](C(=O)O)CC2)cc1` [Example 469], in experiment [2], the “TG increase inhibitory rate” value is on record as 109%. The same molecule registered a half-maximal inhibitory concentration (IC50) in experiment [1] of 1.7 nM.
The molecule `O=C(NCCNC(=O)N1CCC(c2ccc(Cl)cc2)CC1)c1ccc(O[C@H]2CC[C@@H](C(=O)O)CC2)c(F)c1F` [Example 480] came in with an IC50 in experiment [1] of 5.2 nM. In other words, the single-digit nanomolar range.
As for `O=C(NCCNC(=O)c1ccc(O[C@H]2CC[C@@H](C(=O)O)CC2)c(F)c1F)c1ccc(Cl)s1` [Example 490], the “TG increase inhibitory rate” value in experiment [2] was found to be 92%. Moreover, the “weight increase inhibitory rate” value in experiment [3] was found to be 98%. The molecule also displayed an IC50 in experiment [1] of 3.8 nM.
`O=C(NCCNC(=O)c1ccc(O[C@H]2CC[C@@H](C(=O)O)CC2)cc1F)c1cc2cc(F)ccc2s1` [Example 531]: the IC50 in experiment [1] came to 0.1 nM. That is a sub-nanomolar value.
`O=C(O)C[C@H]1CC[C@@H](Oc2cc(F)c(C(=O)NCCNC(=O)c3ccc4ccccc4c3)cc2F)CC1` [Example 571] yielded an IC50 in experiment [1] of 1.6 nM.
In experiment [1], `O=C(O)CC1CCN(c2c(F)cc(C(=O)NCCNC(=O)c3sc4ccccc4c3Cl)cc2F)CC1` [Example 604] displayed an IC50 of 32 nM.

The values are drawn from patent US20120046292A1, “[…] COMPOUND” (ASTELLAS PHARMA INC., priority 2009, published 2012).
